{
  "source": "paper PMC10653921",
  "about": "(mBio, 2023)",
  "key": {"[1]": {"target": "T1, PA4915-LBD (Pseudomonas aeruginosa, UniProt Q9HUP8)", "T1 sequence (Q9HUP8 32-189 limits assumed)": "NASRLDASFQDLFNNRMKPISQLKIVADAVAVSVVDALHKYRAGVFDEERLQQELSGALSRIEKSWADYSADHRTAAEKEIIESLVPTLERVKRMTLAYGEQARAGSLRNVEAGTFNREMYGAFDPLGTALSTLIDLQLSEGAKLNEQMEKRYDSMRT", "assay_type": "binding", "conditions": "read-out: KD by ITC ^ b"}, "[2]": {"test_system": "PctC-Tar", "conditions": "read-out: EC50 by FRET ^ a; attractant response, tethering buffer pH 7.0, Hill fit"}, "[3]": {"target": "T2, PctB-LBD (PA4310) (Pseudomonas aeruginosa, UniProt Q9HW91)", "T2 sequence (Q9HW91 32-276 limits assumed)": "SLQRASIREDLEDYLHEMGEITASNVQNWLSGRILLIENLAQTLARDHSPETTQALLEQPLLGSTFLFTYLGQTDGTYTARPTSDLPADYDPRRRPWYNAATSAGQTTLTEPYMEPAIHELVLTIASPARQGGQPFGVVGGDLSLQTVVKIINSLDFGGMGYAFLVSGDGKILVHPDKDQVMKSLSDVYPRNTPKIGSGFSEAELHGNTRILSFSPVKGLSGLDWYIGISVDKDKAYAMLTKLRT", "assay_type": "binding", "conditions": "read-out: KD by ITC ^ b"}, "[4]": {"test_system": "PctB-Tar", "conditions": "read-out: EC50 by FRET ^ a; attractant response, tethering buffer pH 7.0, Hill fit"}, "[5]": {"test_system": "PctA-Tar", "conditions": "read-out: EC50 by FRET ^ a; attractant response, tethering buffer pH 7.0, Hill fit"}},
  "data": [
    {"smiles": "NCCc1ccccc1", "note": "[2-Phenylethylamine]", "values": [
      {"measurement": "Kd", "setting": "[1]", "value": "58 ± 11", "unit": "µM"}
    ]},
    {"smiles": "NCCCCC(=O)O", "note": "[5-Aminovalerate]", "values": [
      {"measurement": "EC50", "setting": "[2]", "value": "1.5 ± 0.2", "unit": "µM"}
    ]},
    {"smiles": "COC(=O)CCCN", "note": "[Methyl 4-aminobutyrate]", "values": [
      {"measurement": "EC50", "setting": "[2]", "value": "2.9 ± 0.4", "unit": "µM"}
    ]},
    {"smiles": "NCCC[C@H](N)C(=O)O", "note": "[L-Ornithine]", "values": [
      {"measurement": "Kd", "setting": "[3]", "value": "559 ± 80", "unit": "µM"},
      {"measurement": "EC50", "setting": "[4]", "value": "10.2 ± 0.8", "unit": "µM"},
      {"measurement": "EC50", "setting": "[5]", "value": "1.8 ± 0.2", "unit": "µM"}
    ]}
  ]
}
